According to article PMC5697638, “Identification of a Potent Phosphoinositide 3‐Kinase Pan Inhibitor Displaying a Strategic Carboxylic Acid Group and Development of Its Prodrugs” (Chemmedchem, 2017):

Assays:
Format in all cases: biochemical
[1] = target: T1, human PI3Kα (PIK3CA/PIK3R1) (Homo sapiens, UniProt P42336); assay: lipid kinase assay (ADP-Glo), PI3Kα; details: for inhibition at 1 µM: determined at 1 μM, at least triplicate, read-out: Inhibitory activity, PI3K isoform α; for IC50: Table 2, mean of at least three determinations, 95 % confidence intervals, read-out: IC50 PI3Kα
T1 construct: purchased ProQinase, Germany 1161‐1165‐1
Method: (§1) In vitro selection, lipid kinase assay: To determine the inhibitory activity of the new molecular entities on PI3K enzyme, a lipid kinase assay was performed: recombinant proteins (30 ng), human PI3Kα (PIK3CA/PIK3R1, #1161‐1165‐1 ProQinase–Germany), hPI3Kβ (PIK3CB wt/PIK3R1, #1168‐1165‐1 ProQinase, Germany), hPI3Kγ (PIK3CG, #1163‐0000‐1 ProQinase, Germany), hPI3Kδ (PIK3CD/PIK3R1, #1162–1165‐1 ProQinase, Germany), hPI3K‐C2α (PIK3C2A, #14‐906 Merck Millipore_Merck KGaA, Germany), hPI3K‐C2β (PIK3C2B, #14‐907 Merck Millipore_Merck KGaA, Germany), hPI3K‐c2γ (PIK3C2G, #1207‐0000‐1 ProQinase, Germany), and hVps34 (PIK3C3, #1160‐0000‐1 ProQinase, Germany), were incubated in kinase buffer {12.5 μL; 20 mM Tris‐HCl pH 7.5, 10 mM MgCl2, 10 μM ATP, 0.05 mg mL^−1 BSA, 0.5 mM EDTA, 5 mM HEPES pH 7.5, for PI3Kα,PI3Kβ, PI3Kγ, PI3Kδ, PI3KC‐2α, and PI3KC‐2γ; 15 mM MnCl2, 5 mM EGTA, 100 μM ATP, 50 mM HEPES pH 7.5, 100 mM NaCl, and 0.03 % CHAPS for PI3K‐C2β and VPS34 {BSA=bovine serum albumin; EDTA=ethylenediaminetetraacetic acid; HEPES=4‐(2‐hydroxyethyl)‐1‐piperazineethanesulfonic acid; EGTA=ethylene glycol‐bis(2‐aminoethylether)‐N,N,N′,N′‐tetraacetic acid; CHAPS=3‐[(3‐cholamidopropyl)dimethylammonio]‐1‐propanesulfonate}. In the reaction, the ATP concentration used for different PI3Ks was defined on the basis of the Michaelis–Menten kinetics of each enzyme, provided by the supplier. Reaction was performed in presence of 0.5 mg mL^−1 lipid micelles (1:1 phosphatidylinositol/phosphatidylserine) and in the absence (DMSO alone) or presence of increasing concentrations of each compound (from 0.1 nM to 30 μM). The mixture was kept at room temperature (RT) for 30 min for PI3Kα, PI3Kβ, PI3Kγ, PI3Kδ, PI3KC‐2α, and PI3KC‐2γ and for 1 h for PI3K‐C2β and PI3K‐C3. The amount of ADP produced in the reaction was measured by using the ADP‐Glo Kinase Assay kit from Promega (#V9102) and a luminescence reader (Glomax multi detection system, Promega, model number 9301‐010).
(§2) The residual PI3K lipid kinase activity in the presence of each molecule at different concentrations was related to the control, intended as the recombinant protein in the presence of DMSO alone and was expressed as a percentage. To derive the IC50 value, all data (% of lipid kinase activity) were plotted on a dose–response curve (Graph Pad software), and the IC50 was calculated by using nonlinear regression fit (equation [log agonist] versus response).

[2] = target: T2, hPI3Kβ (PIK3CB wt/PIK3R1) (Homo sapiens, UniProt P42338); assay: lipid kinase assay (ADP-Glo), PI3Kβ; details: for inhibition at 1 µM: determined at 1 μM, at least triplicate, read-out: Inhibitory activity, PI3K isoform β; for IC50: Table 2, mean of at least three determinations, 95 % confidence intervals
T2 construct: purchased ProQinase, Germany 1168‐1165‐1
Method: as §1, §2

hPI3Kγ (PIK3CG) = target: T3, hPI3Kγ (PIK3CG) (Homo sapiens, UniProt P48736); assay: lipid kinase assay (ADP-Glo), PI3Kγ; details: for inhibition at 1 µM: determined at 1 μM, at least triplicate, read-out: Inhibitory activity, PI3K isoform γ; for IC50: Table 2, mean of at least three determinations, 95 % confidence intervals
T3 construct: purchased ProQinase, Germany 1163‐0000‐1
Method: as §1, §2

hPI3Kδ (PIK3CD/PIK3R1) = target: T4, hPI3Kδ (PIK3CD/PIK3R1) (Homo sapiens, UniProt O00329); assay: lipid kinase assay (ADP-Glo), PI3Kδ; details: for inhibition at 1 µM: determined at 1 μM, at least triplicate, read-out: Inhibitory activity, PI3K isoform δ; for IC50: Table 2, mean of at least three determinations, 95 % confidence intervals
T4 construct: purchased ProQinase, Germany 1162–1165‐1
Method: as §1, §2

T2 sequence (P42338 whole entry, canonical isoform): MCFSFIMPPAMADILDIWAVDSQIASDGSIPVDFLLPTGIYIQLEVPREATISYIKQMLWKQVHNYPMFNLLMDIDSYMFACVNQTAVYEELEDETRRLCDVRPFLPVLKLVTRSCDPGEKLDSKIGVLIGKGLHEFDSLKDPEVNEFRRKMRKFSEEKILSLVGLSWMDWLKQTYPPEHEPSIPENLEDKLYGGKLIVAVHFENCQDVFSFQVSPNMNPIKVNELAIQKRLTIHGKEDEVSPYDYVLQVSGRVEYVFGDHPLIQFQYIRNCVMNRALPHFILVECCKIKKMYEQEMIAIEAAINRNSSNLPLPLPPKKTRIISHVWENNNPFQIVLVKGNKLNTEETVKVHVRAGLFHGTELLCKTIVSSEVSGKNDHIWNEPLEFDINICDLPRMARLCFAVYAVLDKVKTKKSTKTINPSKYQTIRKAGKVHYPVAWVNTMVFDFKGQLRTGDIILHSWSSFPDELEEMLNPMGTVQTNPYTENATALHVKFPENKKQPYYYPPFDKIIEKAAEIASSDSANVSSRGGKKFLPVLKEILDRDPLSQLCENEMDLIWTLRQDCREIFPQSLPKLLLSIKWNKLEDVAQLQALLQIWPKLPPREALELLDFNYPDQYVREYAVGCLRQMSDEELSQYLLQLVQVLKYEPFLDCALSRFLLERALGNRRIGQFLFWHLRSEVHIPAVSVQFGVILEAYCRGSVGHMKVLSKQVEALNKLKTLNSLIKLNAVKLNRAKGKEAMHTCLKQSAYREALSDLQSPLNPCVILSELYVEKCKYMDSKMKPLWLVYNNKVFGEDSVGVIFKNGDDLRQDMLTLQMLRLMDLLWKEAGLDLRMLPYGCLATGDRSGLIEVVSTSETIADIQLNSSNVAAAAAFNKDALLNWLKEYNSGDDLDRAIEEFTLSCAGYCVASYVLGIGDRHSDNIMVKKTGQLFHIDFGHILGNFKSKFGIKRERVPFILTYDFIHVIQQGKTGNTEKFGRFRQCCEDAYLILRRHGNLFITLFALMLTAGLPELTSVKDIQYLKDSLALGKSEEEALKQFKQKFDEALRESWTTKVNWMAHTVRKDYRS
T2 sequence (P27986 whole entry partner, canonical isoform): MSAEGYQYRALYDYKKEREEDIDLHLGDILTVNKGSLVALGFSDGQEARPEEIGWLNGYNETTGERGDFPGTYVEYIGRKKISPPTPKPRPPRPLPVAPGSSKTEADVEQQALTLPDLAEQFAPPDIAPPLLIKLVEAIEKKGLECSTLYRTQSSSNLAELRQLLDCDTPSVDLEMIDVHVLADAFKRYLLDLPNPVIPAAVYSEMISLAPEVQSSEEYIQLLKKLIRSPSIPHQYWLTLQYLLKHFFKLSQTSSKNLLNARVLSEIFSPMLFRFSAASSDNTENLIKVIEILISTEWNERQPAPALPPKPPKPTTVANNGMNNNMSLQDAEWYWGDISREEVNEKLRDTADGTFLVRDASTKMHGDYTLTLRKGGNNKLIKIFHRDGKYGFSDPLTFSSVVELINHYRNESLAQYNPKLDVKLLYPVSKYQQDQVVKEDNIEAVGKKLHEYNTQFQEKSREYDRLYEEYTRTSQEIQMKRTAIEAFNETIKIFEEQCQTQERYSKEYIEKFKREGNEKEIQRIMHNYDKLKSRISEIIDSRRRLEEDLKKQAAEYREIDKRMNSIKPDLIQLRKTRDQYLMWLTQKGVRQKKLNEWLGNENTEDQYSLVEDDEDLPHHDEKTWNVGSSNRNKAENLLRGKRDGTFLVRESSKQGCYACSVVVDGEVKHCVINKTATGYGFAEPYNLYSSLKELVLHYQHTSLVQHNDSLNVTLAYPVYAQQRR
T3 sequence (P48736 whole entry, canonical isoform): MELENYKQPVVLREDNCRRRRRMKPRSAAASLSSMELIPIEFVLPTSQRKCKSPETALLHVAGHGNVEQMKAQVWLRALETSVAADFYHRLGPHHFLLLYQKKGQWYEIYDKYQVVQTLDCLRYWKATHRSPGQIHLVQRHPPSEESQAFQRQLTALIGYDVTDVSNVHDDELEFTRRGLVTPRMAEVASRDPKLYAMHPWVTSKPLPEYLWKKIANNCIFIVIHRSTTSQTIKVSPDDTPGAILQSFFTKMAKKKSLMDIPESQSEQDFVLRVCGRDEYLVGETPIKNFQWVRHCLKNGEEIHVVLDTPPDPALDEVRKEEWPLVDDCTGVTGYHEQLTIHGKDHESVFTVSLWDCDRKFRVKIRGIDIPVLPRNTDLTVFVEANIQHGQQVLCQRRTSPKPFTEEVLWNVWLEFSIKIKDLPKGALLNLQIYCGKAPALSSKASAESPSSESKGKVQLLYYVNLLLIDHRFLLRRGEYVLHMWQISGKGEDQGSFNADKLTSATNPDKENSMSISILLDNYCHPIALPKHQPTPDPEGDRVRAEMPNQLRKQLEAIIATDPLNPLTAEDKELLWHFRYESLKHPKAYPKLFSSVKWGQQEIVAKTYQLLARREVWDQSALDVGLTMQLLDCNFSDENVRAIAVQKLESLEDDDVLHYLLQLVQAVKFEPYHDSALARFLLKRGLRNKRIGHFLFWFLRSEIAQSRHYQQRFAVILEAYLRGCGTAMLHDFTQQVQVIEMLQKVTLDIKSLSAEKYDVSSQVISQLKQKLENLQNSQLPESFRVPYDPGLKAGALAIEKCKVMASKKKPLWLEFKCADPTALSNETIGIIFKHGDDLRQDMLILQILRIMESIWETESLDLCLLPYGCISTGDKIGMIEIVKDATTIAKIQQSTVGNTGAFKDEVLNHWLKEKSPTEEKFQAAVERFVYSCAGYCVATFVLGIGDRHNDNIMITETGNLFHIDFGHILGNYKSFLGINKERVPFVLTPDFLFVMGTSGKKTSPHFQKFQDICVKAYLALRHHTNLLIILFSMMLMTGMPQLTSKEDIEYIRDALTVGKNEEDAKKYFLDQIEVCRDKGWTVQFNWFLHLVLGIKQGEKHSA
T1 sequence (P42336 whole entry, canonical isoform): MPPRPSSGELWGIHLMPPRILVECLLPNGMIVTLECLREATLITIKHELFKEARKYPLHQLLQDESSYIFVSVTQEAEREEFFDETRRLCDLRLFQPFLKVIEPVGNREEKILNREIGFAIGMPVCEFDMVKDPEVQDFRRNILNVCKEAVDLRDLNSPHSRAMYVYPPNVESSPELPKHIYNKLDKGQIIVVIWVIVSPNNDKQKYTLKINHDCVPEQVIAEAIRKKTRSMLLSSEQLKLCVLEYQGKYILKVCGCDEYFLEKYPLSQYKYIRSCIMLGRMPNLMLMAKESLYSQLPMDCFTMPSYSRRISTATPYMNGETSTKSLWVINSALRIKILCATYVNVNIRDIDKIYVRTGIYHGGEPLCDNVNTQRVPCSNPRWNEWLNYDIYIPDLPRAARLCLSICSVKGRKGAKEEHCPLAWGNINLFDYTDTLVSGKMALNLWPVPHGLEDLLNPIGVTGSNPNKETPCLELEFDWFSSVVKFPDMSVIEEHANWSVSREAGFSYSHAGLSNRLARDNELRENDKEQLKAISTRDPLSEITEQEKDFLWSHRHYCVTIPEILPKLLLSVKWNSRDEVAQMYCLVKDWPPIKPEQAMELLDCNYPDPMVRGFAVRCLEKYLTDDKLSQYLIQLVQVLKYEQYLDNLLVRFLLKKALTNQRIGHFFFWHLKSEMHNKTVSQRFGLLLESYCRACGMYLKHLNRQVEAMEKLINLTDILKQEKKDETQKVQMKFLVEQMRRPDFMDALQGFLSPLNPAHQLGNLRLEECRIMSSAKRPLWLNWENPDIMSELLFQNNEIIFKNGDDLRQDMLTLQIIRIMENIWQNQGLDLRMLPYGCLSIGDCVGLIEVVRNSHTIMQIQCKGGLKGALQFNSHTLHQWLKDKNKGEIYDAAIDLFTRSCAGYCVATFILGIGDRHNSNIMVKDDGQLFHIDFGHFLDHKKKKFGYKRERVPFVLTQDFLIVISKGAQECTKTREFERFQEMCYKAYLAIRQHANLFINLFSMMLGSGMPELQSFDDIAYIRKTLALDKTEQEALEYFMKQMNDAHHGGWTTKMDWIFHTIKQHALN
T1 sequence (P27986 whole entry partner, canonical isoform): as the sequence (P27986 whole entry partner, canonical isoform) above
T4 sequence (O00329 whole entry, canonical isoform): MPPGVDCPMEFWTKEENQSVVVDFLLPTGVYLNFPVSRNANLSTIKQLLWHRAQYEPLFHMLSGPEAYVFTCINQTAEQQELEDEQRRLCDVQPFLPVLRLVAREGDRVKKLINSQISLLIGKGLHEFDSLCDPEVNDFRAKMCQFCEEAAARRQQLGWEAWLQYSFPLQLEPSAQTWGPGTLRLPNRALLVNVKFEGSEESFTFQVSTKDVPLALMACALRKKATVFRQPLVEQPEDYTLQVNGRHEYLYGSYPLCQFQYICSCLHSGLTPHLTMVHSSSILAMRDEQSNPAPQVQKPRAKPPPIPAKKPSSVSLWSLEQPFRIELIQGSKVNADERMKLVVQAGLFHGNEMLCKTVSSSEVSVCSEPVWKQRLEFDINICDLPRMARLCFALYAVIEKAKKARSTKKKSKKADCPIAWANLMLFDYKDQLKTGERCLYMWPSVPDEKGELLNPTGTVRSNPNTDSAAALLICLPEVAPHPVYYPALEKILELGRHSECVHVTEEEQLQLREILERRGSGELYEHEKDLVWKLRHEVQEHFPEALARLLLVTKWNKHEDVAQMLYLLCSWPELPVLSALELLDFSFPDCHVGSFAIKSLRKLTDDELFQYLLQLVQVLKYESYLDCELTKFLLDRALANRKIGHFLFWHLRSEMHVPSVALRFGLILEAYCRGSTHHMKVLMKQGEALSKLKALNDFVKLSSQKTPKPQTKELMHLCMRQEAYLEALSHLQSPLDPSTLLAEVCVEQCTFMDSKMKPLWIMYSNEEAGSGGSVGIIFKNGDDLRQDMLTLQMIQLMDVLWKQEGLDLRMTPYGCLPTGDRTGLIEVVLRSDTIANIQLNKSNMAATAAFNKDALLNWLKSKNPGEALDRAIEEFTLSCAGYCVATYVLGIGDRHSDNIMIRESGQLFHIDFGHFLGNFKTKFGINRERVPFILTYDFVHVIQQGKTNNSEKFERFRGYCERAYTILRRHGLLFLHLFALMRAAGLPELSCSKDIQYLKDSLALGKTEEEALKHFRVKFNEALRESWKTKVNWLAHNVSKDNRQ
T4 sequence (P27986 whole entry partner, canonical isoform): as the sequence (P27986 whole entry partner, canonical isoform) above

Row | SMILES | inhibition at 1 µM [1] | inhibition at 1 µM [2] | inhibition at 1 µM (hPI3Kγ (PIK3CG)) | inhibition at 1 µM (hPI3Kδ (PIK3CD/PIK3R1)) | IC50 [1] | IC50 [2] | IC50 (hPI3Kγ (PIK3CG)) | IC50 (hPI3Kδ (PIK3CD/PIK3R1))
1 | COc1cc(OC)cc(-n2cc(-c3cccc4c(=O)cc(N5CCOCC5)[nH]c34)nn2)c1 [Compound 47, 8‐[1‐(3,5‐Dimethoxyphenyl)‐1H‐1,2,3‐triazol‐4‐yl]‐2‐morpholinoquinolin‐4(1H)‐one] | < 50% | < 50% | < 50% | < 50% | – | – | – | –
2 | O=c1cc(N2CCOCC2)[nH]c2c(-c3cn(-c4cccc5ccccc45)nn3)cccc12 [Compound 53, 2‐Morpholino‐8‐[1‐(naphthalen‐1‐yl)‐1H‐1,2,3‐triazol‐4‐yl]quinolin‐4(1H)‐one] | < 50% | < 50% | < 50% | < 50% | – | – | – | –
3 | COC(=O)c1ccc(Cn2cc(-c3cccc4c(=O)cc(N5CCOCC5)[nH]c34)nn2)cc1 [Compound 31, Methyl‐4‐{[4‐(2‐morpholino‐4‐oxo‐1,4‐dihydroquinolin‐8‐yl)‐1H‐1,2,3‐triazol‐1‐yl]methyl}benzoate] | < 50% | < 50% | < 50% | < 50% | – | – | – | –
4 | COc1ccc(-n2cc(-c3cccc4c(=O)cc(N5CCOCC5)[nH]c34)nn2)cc1[N+](=O)[O-] [Compound 30, 8‐[1‐(4‐Methoxy‐3‐nitrophenyl)‐1H‐1,2,3‐triazol‐4‐yl]‐2‐morpholinoquinolin‐4(1H)‐one] | < 50% | < 50% | < 50% | < 50% | – | – | – | –
5 | COc1ccc(-n2cc(-c3cccc4c(=O)cc(N5CCOCC5)[nH]c34)nn2)cc1 [Compound 44, 8‐[1‐(4‐Methoxyphenyl)‐1H‐1,2,3‐triazol‐4‐yl]‐2‐morpholinoquinolin‐4(1H)‐one] | < 50% | < 50% | < 50% | < 50% | – | – | – | –
6 | O=c1cc(N2CCOCC2)[nH]c2c(-c3cn(-c4ccccc4O)nn3)cccc12 [Compound 54, 8‐[1‐(2‐Hydroxyphenyl)‐1H‐1,2,3‐triazol‐4‐yl]‐2‐morpholinoquinolin‐4(1H)‐one] | > 50% | < 50% | < 50% | > 50% | 260 ± 120 nM | 1100 ± 500 nM | 1400 ± 440 nM | 350 ± 170 nM
7 | COC(=O)c1ccc(-n2cc(-c3cccc4c(=O)cc(N5CCOCC5)[nH]c34)nn2)cc1 [Compound 42, Methyl 4‐[4‐(2‐morpholino‐4‐oxo‐1,4‐dihydroquinolin‐8‐yl)‐1H‐1,2,3‐triazol‐1‐yl]benzoate] | < 50% | < 50% | < 50% | < 50% | – | – | – | –
8 | Cc1cc(F)ccc1Oc1cccc2c(=O)cc(N3CCOCC3)[nH]c12 [TGX155, reference compound] | – | – | – | – | > 10000 nM | 96 ± 7 nM | 9400 ± 1200 nM | 410 ± 130 nM
9 | O=c1cc(N2CCOCC2)[nH]c2c(-c3cn(-c4ccc(OC(F)(F)F)cc4)nn3)cccc12 [Compound 29, 2‐Morpholino‐8‐{1‐[4‐(trifluoromethoxy)phenyl]‐1H‐1,2,3‐triazol‐4‐yl}quinolin‐4(1H)‐one] | < 50% | < 50% | < 50% | < 50% | – | – | – | –
10 | COc1ccc(-n2cc(-c3cccc4c(=O)cc(N5CCOCC5)[nH]c34)nn2)cc1O [Compound 27, 8‐[1‐(3‐Hydroxy‐4‐methoxyphenyl)‐1H‐1,2,3‐triazol‐4‐yl]‐2‐morpholinoquinolin‐4(1H)‐one] | < 50% | < 50% | < 50% | < 50% | – | – | – | –
11 | COc1cccc(-n2cc(-c3cccc4c(=O)cc(N5CCOCC5)[nH]c34)nn2)c1 [Compound 35, 8‐[1‐(3‐Methoxyphenyl)‐1H‐1,2,3‐triazol‐4‐yl]‐2‐morpholinoquinolin‐4(1H)‐one] | < 50% | < 50% | < 50% | > 50% | 1300 ± 700 nM | 9300 ± 5800 nM | 4200 ± 2100 nM | 810 ± 360 nM
12 | COc1ccc(-n2cc(-c3cccc4c(=O)cc(N5CCOCC5)[nH]c34)nn2)cc1OC [Compound 43, 8‐[1‐(3,4‐Dimethoxyphenyl)‐1H‐1,2,3‐triazol‐4‐yl]‐2‐morpholinoquinolin‐4(1H)‐one] | < 50% | < 50% | < 50% | < 50% | – | – | – | –
13 | O=c1cc(N2CCOCC2)[nH]c2c(-c3cn(-c4ccccc4)nn3)cccc12 [Compound 25, 2‐Morpholino‐8‐(1‐phenyl‐1H‐1,2,3‐triazol‐4‐yl)quinolin‐4(1H)‐one] | > 50% | < 50% | < 50% | > 50% | 740 ± 310 nM | 5500 ± 2500 nM | 3000 ± 1000 nM | 610 ± 270 nM
14 | O=c1cc(N2CCOCC2)[nH]c2c(-c3cn(-c4ccc5ccccc5c4)nn3)cccc12 [Compound 34, 2‐Morpholino‐8‐[1‐(naphthalen‐2‐yl)‐1H‐1,2,3‐triazol‐4‐yl]quinolin‐4(1H)‐one] | < 50% | < 50% | < 50% | < 50% | – | – | – | –
15 | O=c1cc(N2CCOCC2)[nH]c2c(-c3cn(Cc4ccccc4)nn3)cccc12 [Compound 48, 8‐(1‐Benzyl‐1H‐1,2,3‐triazol‐4‐yl)‐2‐morpholinoquinolin‐4(1H)‐one] | < 50% | > 50% | > 50% | > 50% | 2650 ± 800 nM | 100 ± 40 nM | 1000 ± 500 nM | 470 ± 260 nM
